{
  "source": "patent US20090246134A1",
  "about": "“COMPOSITIONS AND METHODS FOR MODULATING GATED ION CHANNELS” (PainCeptor Pharma Corporation, priority 2007, published 2009)",
  "key": {"[1]": {"tested_on": "formalin-induced pain in Sprague-Dawley rats", "assay": "Formalin model of acute tonic pain", "assay_type": "in vivo, rat", "settings": "rat, in vivo", "description": "Male Sprague-Dawley rats are housed together in groups of three animals under standard conditions with unrestricted access to food and water. All experiments are conducted according to the ethical guidelines for investigations of experimental pain in conscious animals (Zimmerman, 1983)\nAssessment of formalin-induced flinching behavior in normal, uninjured rats (body weight 150-180 g) was made with the use of an Automated Nociception Analyser (University of California, San Diego, USA). Briefly, this involved placing a small C-shaped metal band (10 mm wide×27 mm long) on the hindpaw of the rat to be tested. The rats (four rats were included in each testing session) were then placed in a cylindrical plexiglass observation chamber (diameter 30.5 cm and height 15 cm) for 20 min for adaptation purposes prior to being administered drug or vehicle according to the experimental paradigm being followed. After adaptation, individual rats were then gently restrained and formalin (5% in saline, 50 μl, s.c.) was injected into the plantar surface of the hindpaw using a 27 G needle. Rats were then returned to their separate observation chambers, each of which were in turn situated upon an enclosed detection device consisting of two electromagnetic coils designed to produce an electromagnetic field in which movement of the metal band could be detected. The analogue signal was then digitised and a software algorithm (LabView) applied to enable discrimination of flinching behaviour from other paw movements. A sampling interval of 1 min was used and on the basis of the resulting response patterns 5 phases of nociceptive behaviour were identified and scored: first phase (P1; 0-5 min), interphase (Int; 6-15 min), second phase (P2; […]), phase 2A (P2A; 16-40 min) and phase 2B (P2B; 41-60 min).\nNociceptive behavior was also determined manually every 5 min by measuring the amount of time spent in each of four behavioral categories: 0, treatment of the injected hindpaw is indistinguishable from that of the contralateral paw; 1, the injected paw has little or no weight placed on it; 2, the injected paw is elevated and is not in contact with any surface; 3, the injected paw is licked, bitten, or shaken. A weighted nociceptive score, ranging from 0 to 3 was calculated by multiplying the time spent in each category by the category weight, summing these products, and dividing by the total time for each 5 min block of time. (Coderre et al., Pain 1993; 54: 43). On the basis of the resulting response patterns, 2 phases of nociceptive behavior were identified and scored: first phase (P1; 0-5 min), interphase (Int; 6-15 min), second phase (P2; […]), phase 2A (P2A; 16-40 min) and phase 2B (P2B; 41-60 min).\nStatistical analysis was performed using Prism™ 4.01 software package (GraphPad, San Diego, Calif., USA). The difference in response levels between treatment groups and control vehicle group was analyzed using an ANOVA followed by Bonferroni's method for post-hoc pair-wise comparisons. A p value<0.05 was considered to be significant\nThe effect of Compound A on pain induced by intraplantar formalin injection was investigated. Compound A was administered i.p. 30 min. before the formalin. Compound A was able to reduce the total pain score behavior (flinching, licking, biting) in phase 1 and 2 of the formalin test."}, "[2]": {"tested_on": "native sensory-neuron gated ion channels", "assay": "Patch-clamp electrophysiology of sensory neurons in primary culture", "assay_type": "cell-based, rat", "settings": "n=3", "from_the_text": "This example describes another in vitro assessment of the inhibitory activity of the compounds of the present invention utilizing patch-clamp electrophysiology of sensory neurons in primary culture.\nSensory neurons can be isolated and cultured in vitro from different animal species. The most widely used protocols use sensory neurons isolated from neonatal (Eckert, et al. (1997) J Neurosci Methods 77:183-190) and embryonic (Vasko, et al. (1994) J Neurosci 14:4987-4997) rat. […] Electrophysiology is performed similarly as described above in Example 2. In the voltage-clamp mode, trans-membrane currents are recorded. Compounds A and H at 1 μM inhibit the pH 6.5-induced inward current. In the current-clamp mode, change in the trans-membrane potential are recorded. Under acidic conditions (e.g., pH 6.5) the membrane depolarizes, leading to the firing of action potentials. Compounds A and H at 1 μM inhibit the acid-induced membrane depolarization and reduce the ensuing rate of action potential firing."}, "[3]": {"tested_on": "CFA-induced change in weight bearing in Sprague-Dawley rats", "assay": "CFA model of chronic inflammatory pain, hindpaw weight bearing", "assay_type": "in vivo, rat", "settings": "24 h after CFA; 60 min after drug; Compound A 5, 10, 20 mg/kg i.p.; Compound H 10, 30, 60 mg/kg; morphine 3, 6, 10 mg/kg; n=7-8", "description": "Rats (body weight 260-300 g) were given a s.c. injection of CFA (50% in saline, 100 μl, Sigma) into the plantar surface of the hindpaw under brief halothane anaesthesia. After 24 h, they were then tested for hindpaw weight bearing responses, as assessed using an Incapacitance Tester (Linton Instrumentation, UK), (Zhu et al., 2005). The instrument incorporates a dual channel scale that separately measures the weight of the animal distributed to each hindpaw. While normal rats distribute their body weight equally between the two hindpaws (50-50), the discrepancy of weight distribution between an injured and non-injured paw is a natural reflection of the discomfort level in the injured paw (nocifensive behavior). The rats were placed in the plastic chamber designed so that each hindpaw rested on a separate transducer pad. […] For each rat, three readings from each paw were taken and then averaged. Side-to-side weight bearing difference was calculated as the average of the absolute value of the difference between two hindpaws from three trials (right paw reading-left paw reading).\nHindpaw weight bearing responses were measured in male Sprague-Dawley rats for 2-3 days prior to being given a hindpaw injection of CFA. Twenty-four hours later baseline responses were measured and rats were then administered Compound A (5, 10 and 20 mg/kg, i.p.), Compound H (10, 30 and 60 mg/kg) and morphine (3, 6 and 10 mg/kg). Weight bearing responses were then measured at 30, 60 and 120 min after drug or vehicle injection (data shown at 60 min.). […] All groups n=7-8."}},
  "data": [
    {"compound": "CCN1CCc2c(-c3ccccc3)cc3c(c2C1)NC(=O)/C3=N/O", "note": "[Compound H, 5-phenyl-6,7,8,9-tetrahydro-3-(hydroxyimino)-8-ethyl-1H-pyrrolo[3,2-h]isoquinoline-2(3H)-one]", "values": [
      {"measurement": "acute tonic pain induced by formalin injection in the paw", "setting": "[1]", "value": "block"},
      {"measurement": "acid-induced membrane depolarization", "setting": "[2]; current-clamp mode, 1 μM", "value": "inhibit"},
      {"measurement": "rate of action potential firing", "setting": "[2]; current-clamp mode, acidic conditions, 1 μM", "value": "reduce"},
      {"measurement": "activity of native sensory-neuron gated ion channels", "setting": "[2]", "value": "effectively modulate"},
      {"measurement": "pH 6.5-induced inward current", "setting": "[2]; voltage-clamp mode, 1 μM", "value": "inhibit"},
      {"measurement": "CFA-induced change in weight bearing compared with vehicle", "setting": "[3]", "value": "marked dose-dependent attenuation"}
    ]}
  ]
}
